According to patent publication US8697641B2, “4-amino-4-oxobutanoyl peptide cyclic analogues, inhibitors of viral replication” (Achillion Pharmaceuticals, Inc., priority 2008, dated 2014):

These compounds were tested on Hepatitis C replicon (assay: HCV replicon assay (NPT ELISA readout) in Huh-7 replicon-containing cells). Details: Hepatitis C virus, 72 h; HCV replicon in Huh-7 cells, three days incubation.
Assay type: cell-based, Hepatitis C virus
Method in brief: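 Replication is measured as neomycin phosphotransferase level by captured ELISA after three days of compound exposure (typically 10 to 0.03 μM, 6 concentrations) at 37 °C. Cells are Huh-7 harbouring an HCV replicon with neo gene and NS3-NS5B; interferon alpha is the positive control.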

Row | Structure (SMILES) | EC50
1 | O=C(N[C@@H]1C[C@H]2C(=O)N[C@]3(C(=O)NS(=O)(=O)C4CC4)C[C@H]3/C=C\CCCCC[C@H](CC(=O)N3CCC(F)(F)CC3)C(=O)N2C1)c1cc(-c2ccccc2)nc2ccccc12 [Compound 79, (2R,6R,13aS, 14aR,16aS,Z)-N-(cyclopropylsulfonyl)-6-(2-(4,4-difluoropiperidin-1-yl)-2-oxoethyl)-5,16-dioxo-2-(2-phenylquinoline-4-carboxamido)-1,2,3,5,6,7,8,9,10,11, 13a,14,14a,15,16,16a-hexadecahydrocyclopropa [e]pyrrolo[1,2-a][1,4] diazacyclopentadecine-14a-carboxamide] | < 1 µM
2 | O=C(N[C@@H]1C[C@H]2C(=O)N[C@]3(C(=O)NS(=O)(=O)C4CC4)C[C@H]3/C=C\CCCCC[C@H](CC(=O)N3CCCCC3)C(=O)N2C1)c1cc(-c2ccccc2)nc2ccccc12 [Compound 81, (2R,6R,14aR,16aS,Z)-N-(cyclopropylsulfonyl)-5,16-dioxo-6-(2-oxo-2-(piperidin-1-yl)ethyl)-2-(2-phenylquinoline-4-carboxamido)-1,2,3,5,6,7,8,9,10,11, 13a,14,14a,15,16,16a-hexadecahydrocyclopropa [e]pyrrolo[1,2-a][1,4] diazacyclopentadecine-14a-carboxamide] | < 1 µM
3 | O=C1N[C@]2(C(=O)NS(=O)(=O)C3CC3)C[C@H]2/C=C\CCCCC[C@H](CC(=O)N2CCC(F)(F)CC2)C(=O)N2C[C@H](Oc3cc(-c4ccccn4)nc4c5c(ccc34)OCC5)C[C@@H]12 [Compound 82, (2R,6R,14aR,16aS,Z)-N-(cyclopropylsulfonyl)-6-(2-(4,4-difluoropiperidin-1-yl)-2-oxoethyl)-5,16-dioxo-2-(2-(pyridin-2-yl)-8,9-dihydrofuro[2,3-h]quinolin-4-yloxy)-1,2,3,5,6,7,8,9,10,11, 13a,14,14a,15,16,16a-hexadecahydrocyclopropa [e]pyrrolo[1,2-a][1,4] diazacyclopentadecine-14a-carboxamide] | < 1 µM
4 | O=C1N[C@]2(C(=O)NS(=O)(=O)C3CC3)C[C@H]2/C=C\CCCCC[C@H](CC(=O)N2CCC(C(F)(F)F)CC2)C(=O)N2C[C@H](Oc3cc(-c4ccccn4)nc4c5c(ccc34)OCC5)C[C@@H]12 [Compound 83, (2R,6R,14aR,16aS,Z)-N-(cyclopropylsulfonyl)-5,16-dioxo-6-(2-oxo-2-(4-(trifluoromethyl)piperidin-1-yl)ethyl)-2-(2-(pyridin-2-yl)-8,9-dihydrofuro[2,3-h]quinolin-4-yloxy)-1,2,3,5,6,7,8,9,10,11, 13a,14,14a,15,16,16a-hexadecahydrocyclopropa [e]pyrrolo[1,2-a][1,4] diazacyclopentadecine-14a-carboxamide] | < 1 µM
5 | O=C1N[C@]2(C(=O)NS(=O)(=O)C3CC3)C[C@H]2/C=C\CCCCC[C@H](CC(=O)N2CCCCC2)C(=O)N2C[C@H](Oc3cc(-c4ccccn4)nc4c5c(ccc34)OCC5)C[C@@H]12 [Compound 84, (2R,6R,14aR,16aS,Z)-N-(cyclopropylsulfonyl)-5,16-dioxo-6-(2-oxo-2-(piperidin-1-yl)ethyl)-2-(2-(pyridin-2-yl)-8,9-dihydrofuro[2,3-h]quinolin-4-yloxy)-1,2,3,5,6,7,8,9,10,11, 13a,14,14a,15,16,16a-hexadecahydrocyclopropa [e]pyrrolo[1,2-a][1,4] diazacyclopentadecine-14a-carboxamide] | > 10 µM
6 | COc1ccc2c(O[C@@H]3C[C@H]4C(=O)N[C@]5(C(=O)NS(=O)(=O)C6CC6)C[C@H]5/C=C\CCCCC[C@H](CC(=O)N5CCN(C(=O)N6CCCC6)CC5)C(=O)N4C3)cc(-c3ccccc3)nc2c1 [Compound 85, (2R,6R,14aR,16aS,Z)-N-(cyclopropylsulfonyl)-2-(7-methoxy-2-phenylquinolin-4-yloxy)-5,16-dioxo-6-(2-oxo-2-(4-(pyrrolidine-1-carbonyl)piperazin-1-yl)ethyl)-1,2,3,5,6,7,8,9,10,11, 13a,14,14a,15,16,16a-hexadecahydrocyclopropa [e]pyrrolo[1,2-a][1,4] diazacyclopentadecine-14a-carboxamide] | < 1 µM
7 | CCS(=O)(=O)N1CCN(C(=O)C[C@H]2CCCCC/C=C\[C@@H]3C[C@@]3(C(=O)NS(=O)(=O)C3CC3)NC(=O)[C@@H]3C[C@@H](Oc4cc(-c5ccccc5)nc5cc(OC)ccc45)CN3C2=O)CC1 [Compound 86, (2R,6R,14aR,16aS,Z)-N-(cyclopropylsulfonyl)-6-(2-(4-(ethylsulfonyl)piperazin-1-yl)-2-oxoethyl)-2-(7-methoxy-2-phenylquinolin-4-yloxy)-5,16-dioxo-1,2,3,5,6,7,8,9,10,11, 13a,14,14a,15,16,16a-hexadecahydrocyclopropa [e]pyrrolo[1,2-a][1,4] diazacyclopentadecine-14a-carboxamide] | < 1 µM
8 | COc1ccc2c(O[C@@H]3C[C@H]4C(=O)N[C@]5(C(=O)NS(=O)(=O)C6CC6)C[C@H]5/C=C\CCCCC[C@H](CC(=O)N5CCN(c6cnccn6)CC5)C(=O)N4C3)cc(-c3ccccc3)nc2c1 [Compound 87, (2R,6R,14aR,16aS,Z)-N-(cyclopropylsulfonyl)-2-(7-methoxy-2-phenylquinolin-4-yloxy)-5,16-dioxo-6-(2-oxo-2-(4-(pyrazin-2-yl)piperazin-1-yl)ethyl)-1,2,3,5,6,7,8,9,10,11, 13a,14,14a,15,16,16a-hexadecahydrocyclopropa [e]pyrrolo[1,2-a][1,4] diazacyclopentadecine-14a-carboxamide] | < 1 µM
9 | COc1ccc2c(O[C@@H]3C[C@H]4C(=O)N[C@]5(C(=O)NS(=O)(=O)C6CC6)C[C@H]5/C=C\CCCCC[C@H](CC(=O)OC(C)(C)C)C(=O)N4C3)cc(-c3ccccn3)nc2c1Cl [Compound 88, tert-butyl 2-((2R,6R,14aR, 16aS,Z)-2-(8-chloro-7-methoxy-2-(pyridin-2-yl)quinolin-4-yloxy)-14a-(cyclopropylsulfonyl-carbamoyl)-5,16-dioxo-1,2,3,5,6,7,8,9,10,11, 13a,14,14a,15,16,16a-hexadecahydrocyclopropa [e]pyrrolo[1,2-a][1,4]diazacyclopentadecin-6-yl)acetate] | < 1 µM
10 | COc1ccc2c(O[C@@H]3C[C@H]4C(=O)N[C@]5(C(=O)NS(=O)(=O)C6CC6)C[C@H]5/C=C\CCCCC[C@H](CC(=O)O)C(=O)N4C3)cc(-c3ccccn3)nc2c1Cl [Compound 89, 2-((2R,6R,14aR, 16aS,Z)-2-(8-chloro-7-methoxy-2-(pyridin-2-yl)quinolin-4-yloxy)-14a-(cyclopropylsulfonyl-carbamoyl)-5,16-dioxo-1,2,3,5,6,7,8,9,10,11, 13a,14,14a,15,16,16a-hexadecahydrocyclopropa [e]pyrrolo[1,2-a][1,4]diazacyclopentadecin-6-yl)acetic acid] | < 1 µM
11 | COc1ccc2c(O[C@@H]3C[C@H]4C(=O)N[C@]5(C(=O)NS(=O)(=O)C6CC6)C[C@H]5/C=C\CCCCC[C@H](CC(=O)N5CCCCC5)C(=O)N4C3)cc(-c3ccccn3)nc2c1Cl [Compound 90, (2R,6R,14aR,16aS,Z)-2-(8-chloro-7-methoxy-2-(pyridin-2-yl)quinolin-4-yloxy)-N-(cyclopropylsulfonyl)-5, 16-dioxo-6-(2-oxo-2-(piperidin-1-yl)ethyl)-1,2,3,5,6,7,8,9,10,11, 13a,14,14a,15,16,16a-hexadecahydrocyclopropa [e]pyrrolo[1,2-a][1,4] diazacyclopentadecine-14a-carboxamide] | < 1 µM
12 | COc1ccc2c(O[C@@H]3C[C@H]4C(=O)N[C@]5(C(=O)NS(=O)(=O)C6CC6)C[C@H]5/C=C\CCCCC[C@H](CC(=O)N5CCCC(F)(F)C5)C(=O)N4C3)cc(-c3ccccn3)nc2c1Cl [Compound 91, (2R,6R,14aR,16aS,Z)-2-(8-chloro-7-methoxy-2-(pyridin-2-yl)quinolin-4-yloxy)-N-(cyclopropylsulfonyl)-6-(2-(3,3-difluoropiperidin-1-yl)-2-oxoethyl)-5,16-dioxo-1,2,3,5,6,7,8,9,10,11, 13a,14,14a,15,16,16a-hexadecahydrocyclopropa [e]pyrrolo[1,2-a][1,4] diazacyclopentadecine-14a-carboxamide] | < 1 µM
13 | COc1ccc2c(O[C@@H]3C[C@H]4C(=O)N[C@]5(C(=O)NS(=O)(=O)C6CC6)C[C@H]5/C=C\CCCCC[C@H](CC(=O)N5CCC(C(F)(F)F)CC5)C(=O)N4C3)cc(-c3ccccn3)nc2c1Cl [Compound 92, (2R,6R,14aR,16aS,Z)-2-(8-chloro-7-methoxy-2-(pyridin-2-yl)quinolin-4-yloxy)-N-(cyclopropylsulfonyl)-5,16-dioxo-6-(2-oxo-2-(4-(trifluoromethyl)piperidin-1-yl)ethyl)-1,2,3,5,6,7,8,9,10,11, 13a,14,14a,15,16,16a-hexadecahydrocyclopropa [e]pyrrolo[1,2-a][1,4] diazacyclopentadecine-14a-carboxamide] | < 1 µM
14 | COc1ccc2c(O[C@@H]3C[C@H]4C(=O)N[C@]5(C(=O)NS(=O)(=O)C6CC6)C[C@H]5/C=C\CCCCC[C@H](CC(=O)N5CCC(F)(F)CC5)C(=O)N4C3)cc(-c3ccccn3)nc2c1Cl [Compound 93, (2R,6R,14aR,16aS,Z)-2-(8-chloro-7-methoxy-2-(pyridin-2-yl)quinolin-4-yloxy)-N-(cyclopropylsulfonyl)-6-(2-(4,4-difluoropiperidin-1-yl)-2-oxoethyl)-5,16-dioxo-1,2,3,5,6,7,8,9,10,11, 13a,14,14a,15,16,16a-hexadecahydrocyclopropa [e]pyrrolo[1,2-a][1,4] diazacyclopentadecine-14a-carboxamide] | < 1 µM
15 | COc1ccc2c(O[C@@H]3C[C@H]4C(=O)N[C@]5(C(=O)NS(=O)(=O)C6CC6)C[C@H]5/C=C\CCCCC[C@H](CC(=O)N5CCC(F)(F)C5)C(=O)N4C3)cc(-c3ccccn3)nc2c1Cl [Compound 94, (2R,6R,14aR,16aS,Z)-2-(8-chloro-7-methoxy-2-(pyridin-2-yl)quinolin-4-yloxy)-N-(cyclopropylsulfonyl)-6-(2-(3,3-difluoropyrrolidin-1-yl)-2-oxoethyl)-5,16-dioxo-1,2,3,5,6,7,8,9,10,11, 13a,14,14a,15,16,16a-hexadecahydrocyclopropa [e]pyrrolo[1,2-a][1,4] diazacyclopentadecine-14a-carboxamide] | < 1 µM
